Here are results for 11 compounds from US9464042B2, “Biguanide derivative, preparation method thereof, and pharmaceutical composition containing same as an active ingredient” (IMMUNOMET THERAPEUTICS INC., priority 2010, dated 2016).

One data set concerns HCT116 cells. In words: Inhibition of cancer cell proliferation (MTT, GIC50). The settings on record: Homo sapiens, HCT-116, 48 h incubation. In kind it is cell-based. How it is done:
HCT116 cells derived from human colorectal cancer were used, and a cancer cell proliferation inhibition effect of a biguanide derivative was confirmed by measuring a concentration value (cell growth inhibition concentration, GIC50) at which cell growth was inhibited 50% using a 3-(4,5-dimethylthiazol-2-yl)-2,5-diphenyltetrazolium bromide (MTT) reagent.
First, the HCT116 cells were put on a 96-well plate and incubated for 24 hours to each have cell count of approximately 5000 in a DMEM medium containing 10% fetal bovine serum. Subsequently, to obtain the GIC50 value of each compound, 100 μM (or 200 μM), 25 μM, 6.25 μM, 1.56 μM or 0.39 μM of the compound was treated to each culture medium and then incubated for 48 hours. To confirm living cells after treatment with the compound, MTT was added to each culture medium and further incubated for 3 hours. Generated formazane crystal was dissolved using dimethyl sulfoxide (DMSO), and absorbance of the solution was measured at 560 nm. After the 48-hour incubation, a ratio of […] synthesized in the examples was indicated as cell viability (%) according to each administered concentration. A cell viability curve was plotted using the cell viability (%) and the calculated concentration value (GIC50) of the compound, at which 50% of the growth was inhibited, to confirm an effect on the inhibition of cancer cell proliferation.

The next data set concerns AMPK. In words: AMPK activation (AMPKα immunoassay kit, phospho-Thr172) in MCF7 cells. It counts as cell-based, human. Set-up: AMPK Activation 50 uM (degree of phosphorylated AMPKα Thr172): unit not given here. The following applies: 24 h; for AMPK Activation Fold: 50 uM compound vs 0 (no compound); for AMPK Activation 50 uM (degree of phosphorylated AMPKα Thr172): 50 uM compound. The protocol: The MCF7 cells were put on a 6-well plate and incubated in a DMEM medium containing 10% fetal bovine serum in an incubator to which 5% CO2 was supplied to have a cell count of approximately 5×10^5. 50 μM of the derivatives synthesized in the examples were treated to the each culture medium, and the cells were incubated for 24 hours. Subsequently, the cells were lysed by a method presented in the operation manual of the AMPKα immunoassay kit, and 20 μg of cell lysates were yielded through protein assay.

Usually IC50 stands for the concentration needed to halve the response being measured. By melting point is commonly meant the temperature, or range, at which the solid turns liquid.

Consider `CCCCN/C(=N\C1CCCC1)NC(=N)N.Cl` [Example 14, N4-cyclopentyl-N5-butyl biguanide hydrochloride], for which the melting point lay in the range of 190 to 191 °C. Also, the IC50 in the data set on HCT116 cells is more than 100 µM. Further, in the data set with AMPK, the “AMPK Activation Fold” value is given as 3.4 and the “AMPK Activation 50 uM (degree of phosphorylated AMPKα Thr172)” value (“AMPK Activation 50 uM” below) turned out to be 23.2.
The compound `CCCCN/C(=N\C12CC3CC(CC(C3)C1)C2)NC(=N)N.Cl` [Example 16, N4-adamantyl-N5-butyl biguanide hydrochloride] came in with a melting point of 193 to 194 °C. For the same compound, in the data set with HCT116 cells, the IC50 was 34.7 µM. Besides, in the data set with AMPK, the “AMPK Activation Fold” value is on record as 6.7 and the “AMPK Activation 50 uM” value came out at 35.3.
Consider `CCCCN/C(=N\c1ccc(Br)cc1)NC(=N)N.Cl` [Example 17, N4-(4-bromo)phenyl-N5-butyl biguanide hydrochloride], for which the melting point fell in the range of 195 to 196 °C. The compound also had a half-inhibitory concentration (IC50) in the data set with HCT116 cells of 126 µM. Further, in the data set on AMPK, the “AMPK Activation Fold” value is 3.9 and the “AMPK Activation 50 uM” value was determined as 26.3.
In the same order, the values of `CCCCN/C(=N\Cc1ccccc1Cl)NC(=N)N.Cl` [Example 19, N4-(2-chloro)benzyl-N5-butyl biguanide hydrochloride] are 147 to 148 °C, more than 100 µM, 2.8 and 19.1.
In turn, `CCCCN/C(=N\CCc1cccs1)NC(=N)N.Cl` [Example 24, N4-(thiophene-2-yl)ethyl-N5-butyl biguanide hydrochloride] had a melting point of 131 to 133 °C. The same compound had an IC50 in the data set with HCT116 cells of more than 100 µM. In addition, in the data set with AMPK, the “AMPK Activation Fold” value was 4.4 and the “AMPK Activation 50 uM” value is 29.9.
As to `Cl.N=C(N)N/C(=N/Cc1cccnc1)NC1CCCCC1` [Example 26, N4-(pyridine-3-yl)methyl-N5-cyclohexyl biguanide hydrochloride], the melting point lay within 265 to 266 °C. This compound also registered an IC50 with HCT116 cells of more than 100 µM. Moreover, in the data set with AMPK, the “AMPK Activation Fold” value was 2.3 and the “AMPK Activation 50 uM” value turned out to be 15.4.
For the compound `Cl.N=C(N)N/C(=N/CCc1ccccc1)NC1CCCCC1` [Example 27, N4-(phenethyl)-N5-cyclohexyl biguanide hydrochloride], the melting point is 183 to 184 °C. The same compound registered an IC50 in the data set with HCT116 cells of more than 100 µM. Moreover, in the data set with AMPK, the “AMPK Activation Fold” value was found to be 2.7 and the “AMPK Activation 50 uM” value is reported as 18.7.
On to `Cl.N=C(N)N/C(=N/Cc1cccnc1)Nc1ccccc1` [Example 28, N4-(pyridine-3-yl)methyl-N5-phenyl biguanide hydrochloride], for which the melting point was 189 to 190 °C. In addition, in the data set on HCT116 cells, the IC50 is more than 100 µM. Further, in the data set on AMPK, the “AMPK Activation Fold” value is listed as 1.0 and the “AMPK Activation 50 uM” value was 6.7.
In the same order, the values of `Cl.N=C(N)N/C(=N/C1CCCC1)NCc1ccccc1` [Example 30, N4-cyclopentyl-N5-benzyl biguanide hydrochloride] are 166 to 167 °C, more than 200 µM, 1.4 and 7.3.
`Cl.N=C(N)N/C(=N/Cc1ccco1)NCc1ccccc1` [Example 32, N4-(furan-2-yl)methyl-N5-benzyl biguanide hydrochloride] had a melting point of 116 to 117 °C. Further, the IC50 with HCT116 cells is more than 100 µM. In the data set with AMPK, the “AMPK Activation Fold” value came out at 2.5 and the “AMPK Activation 50 uM” value turned out to be 16.9.
In the same order, the values of `Cl.N=C(N)N/C(=N/C12CC3CC(CC(C3)C1)C2)NCCc1ccccc1` [Example 34, N4-adamantyl-N5-(phenethyl)biguanide hydrochloride] are 251 to 252 °C, 18.7 µM, 8.3 and 20.8.
